# Source: PubChem BioAssay (NCI)
#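 Growth conditions: 96-well plates. Treatment: test compound, 48 hours, 5 concentrations. Analysis: linear interpolation between bracketing concentrations; unreached endpoints set to highest concentration. TGI is the concentration that stops growth completely.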
# Experiments:
# Assay in all cases: NCI anticancer screen, dose series, 48 h
# A498 renal = tested on: A498 renal
# NCI-H460 lung = tested on: NCI-H460 lung
# SNB-19 CNS = tested on: SNB-19 CNS
# IGROV1 ovarian = tested on: IGROV1 ovarian
# HOP-92 NSCLC = tested on: HOP-92 NSCLC
# DU-145 prostate = tested on: DU-145 prostate
# U251 CNS = tested on: U251 CNS
# HCC-2998 colon = tested on: HCC-2998 colon
# OVCAR-5 ovarian = tested on: OVCAR-5 ovarian
# MDA-N = tested on: MDA-N
# NCI-H226 lung = tested on: NCI-H226 lung
# SK-MEL-28 melanoma = tested on: SK-MEL-28 melanoma
# NCI-H23 lung = tested on: NCI-H23 lung
# EKVX NSCLC = tested on: EKVX NSCLC
# CCRF-CEM leukemia = tested on: CCRF-CEM leukemia
# SK-MEL-5 melanoma = tested on: SK-MEL-5 melanoma
# UACC-62 melanoma = tested on: UACC-62 melanoma
# HT29 colon = tested on: HT29 colon
# ACHN renal = tested on: ACHN renal
# CAKI-1 renal = tested on: CAKI-1 renal
# M14 melanoma = tested on: M14 melanoma
# PC-3 prostate = tested on: PC-3 prostate
# HL-60(TB) leukemia = tested on: HL-60(TB) leukemia
# HS 578T breast = tested on: HS 578T breast
# RPMI-8226 leukemia = tested on: RPMI-8226 leukemia
# SK-OV-3 ovarian = tested on: SK-OV-3 ovarian
# SR leukemia = tested on: SR leukemia
# KM12 colon = tested on: KM12 colon
# HCT-15 colon = tested on: HCT-15 colon
# SK-MEL-2 melanoma = tested on: SK-MEL-2 melanoma
# COLO 205 colon = tested on: COLO 205 colon
# LOX IMVI melanoma = tested on: LOX IMVI melanoma
# HCT-116 colon = tested on: HCT-116 colon
# SF-268 CNS = tested on: SF-268 CNS
# OVCAR-8 ovarian = tested on: OVCAR-8 ovarian
# RXF 393 renal = tested on: RXF 393 renal
# K-562 leukemia = tested on: K-562 leukemia
# 786-0 renal = tested on: 786-0 renal
# OVCAR-4 ovarian = tested on: OVCAR-4 ovarian
# T-47D breast = tested on: T-47D breast
# MCF7 breast = tested on: MCF7 breast
# HOP-62 NSCLC = tested on: HOP-62 NSCLC
# OVCAR-3 ovarian = tested on: OVCAR-3 ovarian
# TK-10 renal = tested on: TK-10 renal
# SF-295 CNS = tested on: SF-295 CNS
# BT-549 breast = tested on: BT-549 breast
# SW-620 colon = tested on: SW-620 colon
# A549 NSCLC = tested on: A549 NSCLC
# UO-31 renal = tested on: UO-31 renal
# SN12C renal = tested on: SN12C renal
# MDA-MB-435 = tested on: MDA-MB-435
# NCI/ADR-RES ovarian = tested on: NCI/ADR-RES ovarian
# SF-539 CNS = tested on: SF-539 CNS
# MOLT-4 leukemia = tested on: MOLT-4 leukemia
# UACC-257 melanoma = tested on: UACC-257 melanoma
# MALME-3M melanoma = tested on: MALME-3M melanoma
# NCI-H522 lung = tested on: NCI-H522 lung
smiles,measurement,setting,value
O=C1c2ccc3c4ccc5c6c(ccc(c7ccc(c2c37)C(=O)N1CCN1CCCCC1)c64)C(=O)N(CCN1CCCCC1)C5=O,TGI,A498 renal,> 100 µM
same,TGI,NCI-H460 lung,> 100 µM
same,TGI,SNB-19 CNS,> 100 µM
same,TGI,IGROV1 ovarian,> 100 µM
same,TGI,HOP-92 NSCLC,> 100 µM
same,TGI,DU-145 prostate,> 100 µM
same,TGI,U251 CNS,> 100 µM
same,TGI,HCC-2998 colon,> 100 µM
same,TGI,OVCAR-5 ovarian,> 100 µM
same,TGI,MDA-N,> 100 µM
same,TGI,NCI-H226 lung,> 100 µM
same,TGI,SK-MEL-28 melanoma,> 100 µM
same,TGI,NCI-H23 lung,> 100 µM
same,TGI,EKVX NSCLC,> 100 µM
same,TGI,CCRF-CEM leukemia,> 100 µM
same,TGI,SK-MEL-5 melanoma,> 100 µM
same,TGI,UACC-62 melanoma,> 100 µM
same,TGI,HT29 colon,> 100 µM
same,TGI,ACHN renal,> 100 µM
same,TGI,CAKI-1 renal,> 100 µM
same,TGI,M14 melanoma,> 100 µM
same,TGI,PC-3 prostate,> 100 µM
same,TGI,HL-60(TB) leukemia,> 100 µM
same,TGI,HS 578T breast,> 100 µM
same,TGI,RPMI-8226 leukemia,> 100 µM
same,TGI,SK-OV-3 ovarian,> 100 µM
same,TGI,SR leukemia,> 100 µM
same,TGI,KM12 colon,> 100 µM
same,TGI,HCT-15 colon,> 100 µM
same,TGI,SK-MEL-2 melanoma,> 100 µM
same,TGI,COLO 205 colon,> 100 µM
same,TGI,LOX IMVI melanoma,> 100 µM
same,TGI,HCT-116 colon,> 100 µM
same,TGI,SF-268 CNS,> 100 µM
same,TGI,OVCAR-8 ovarian,> 100 µM
same,TGI,RXF 393 renal,> 100 µM
same,TGI,K-562 leukemia,> 100 µM
same,TGI,786-0 renal,> 100 µM
same,TGI,OVCAR-4 ovarian,> 100 µM
same,TGI,T-47D breast,> 100 µM
same,TGI,MCF7 breast,> 100 µM
same,TGI,HOP-62 NSCLC,> 100 µM
same,TGI,OVCAR-3 ovarian,> 100 µM
same,TGI,TK-10 renal,> 100 µM
same,TGI,SF-295 CNS,> 100 µM
same,TGI,BT-549 breast,> 100 µM
same,TGI,SW-620 colon,> 100 µM
same,TGI,A549 NSCLC,> 100 µM
same,TGI,UO-31 renal,> 100 µM
same,TGI,SN12C renal,> 100 µM
same,TGI,MDA-MB-435,> 100 µM
same,TGI,NCI/ADR-RES ovarian,> 100 µM
same,TGI,SF-539 CNS,> 100 µM
same,TGI,MOLT-4 leukemia,> 100 µM
same,TGI,UACC-257 melanoma,> 100 µM
CCOC(=O)CCC(C(=O)OCC)n1nc2ccc(Nc3c(C)[n+]([O-])c4ccc(Cl)cc4[n+]3[O-])cc2n1 (stereo unspecified),TGI,A498 renal,56.3 µM
same,TGI,NCI-H460 lung,33.6 µM
same,TGI,SNB-19 CNS,95.9 µM
same,TGI,IGROV1 ovarian,> 100 µM
same,TGI,HOP-92 NSCLC,71.4 µM
same,TGI,DU-145 prostate,60.9 µM
same,TGI,U251 CNS,39.1 µM
same,TGI,HCC-2998 colon,28 µM
same,TGI,OVCAR-5 ovarian,> 100 µM
same,TGI,MDA-N,> 100 µM
same,TGI,NCI-H226 lung,51.5 µM
same,TGI,NCI-H23 lung,53.4 µM
same,TGI,EKVX NSCLC,41.1 µM
same,TGI,MALME-3M melanoma,> 100 µM
same,TGI,CCRF-CEM leukemia,> 100 µM
same,TGI,SK-MEL-5 melanoma,76.2 µM
same,TGI,UACC-62 melanoma,> 100 µM
same,TGI,HT29 colon,> 100 µM
same,TGI,ACHN renal,31.9 µM
same,TGI,CAKI-1 renal,> 100 µM
same,TGI,M14 melanoma,> 100 µM
same,TGI,NCI-H522 lung,> 100 µM
same,TGI,PC-3 prostate,> 100 µM
same,TGI,HL-60(TB) leukemia,> 100 µM
same,TGI,HS 578T breast,58.3 µM
same,TGI,RPMI-8226 leukemia,> 100 µM
same,TGI,SK-OV-3 ovarian,46.8 µM
same,TGI,SR leukemia,> 100 µM
same,TGI,KM12 colon,> 100 µM
same,TGI,HCT-15 colon,> 100 µM
same,TGI,SK-MEL-2 melanoma,61 µM
same,TGI,COLO 205 colon,> 100 µM
same,TGI,LOX IMVI melanoma,30 µM
same,TGI,HCT-116 colon,57.7 µM
same,TGI,SF-268 CNS,36.3 µM
same,TGI,OVCAR-8 ovarian,65.7 µM
same,TGI,RXF 393 renal,27.3 µM
same,TGI,K-562 leukemia,> 100 µM
same,TGI,786-0 renal,33.8 µM
same,TGI,OVCAR-4 ovarian,> 100 µM
same,TGI,T-47D breast,55.2 µM
same,TGI,MCF7 breast,65.8 µM
same,TGI,HOP-62 NSCLC,40.4 µM
same,TGI,OVCAR-3 ovarian,> 100 µM
same,TGI,TK-10 renal,> 100 µM
same,TGI,SF-295 CNS,39.1 µM
same,TGI,BT-549 breast,> 100 µM
same,TGI,SW-620 colon,> 100 µM
same,TGI,A549 NSCLC,45.8 µM
same,TGI,UO-31 renal,35.6 µM
same,TGI,SN12C renal,48.4 µM
same,TGI,MDA-MB-435,> 100 µM
same,TGI,NCI/ADR-RES ovarian,48 µM
same,TGI,SF-539 CNS,43.9 µM
same,TGI,MOLT-4 leukemia,> 100 µM
same,TGI,UACC-257 melanoma,70.8 µM
